Source: patent publication US6525001B1, “Substituted pyrimidine and pyridine herbicides” (Mid-American Commercialization Corporation, priority 1997, dated 2003)

Experiments:
Format in all cases: in vivo
Parameters in all cases: key: 0 is no effect; 10 is complete control
[1] = test system: bedstraw (Galium aparine); experiment: Test B pre-/postemergence; conditions: for Bedstraw plant response rating: Preemergence
Outline: (§1)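 Response scores run from 0, meaning no effect, to 10, meaning complete control, assigned by eye relative to controls twelve to sixteen days after spraying. Treatment was both preemergence on planted seed and postemergence on plants at the 1- to 4-leaf stage.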

[2] = test system: blackgrass (Alopecurus myosuroides); experiment: Test B pre-/postemergence; conditions: for Blackgrass plant response rating: Preemergence
Outline: as §1

[3] = test system: broadleaf signalgrass (Brachiaria decumbens); experiment: Test B pre-/postemergence; conditions: for B. signalgrass plant response rating: Preemergence
Outline: as §1

[4] = test system: cocklebur (Xanthium strumarium); experiment: Test B pre-/postemergence; conditions: for Cocklebur plant response rating: Preemergence
Outline: as §1

[5] = test system: corn (Zea mays); experiment: Test B pre-/postemergence; conditions: for Corn plant response rating: Preemergence
Outline: as §1

[6] = test system: crabgrass (Digitaria sanguinalis); experiment: Test B pre-/postemergence; conditions: for Crabgrass plant response rating: Preemergence
Outline: as §1

[7] = test system: giant foxtail (Setaria faberii); experiment: Test B pre-/postemergence
Outline: as §1

[8] = test system: momingglory (Ipomoea hederacea); experiment: Test B pre-/postemergence
Outline: as §1

[9] = test system: pigweed (Amaranthus retroflexus); experiment: Test B pre-/postemergence
Outline: as §1

[10] = test system: purple nutsedge (Cyperus rotundus); experiment: Test B pre-/postemergence
Outline: as §1

[11] = test system: rape (Brassica napus); experiment: Test B pre-/postemergence
Outline: as §1

[12] = test system: soybean (Glycine max); experiment: Test B pre-/postemergence
Outline: as §1

[13] = test system: sugar beet (Beta vulgaris); experiment: Test B pre-/postemergence
Outline: as §1

[14] = test system: velvetleaf (Abutilon theophrasti); experiment: Test B pre-/postemergence
Outline: as §1

[15] = test system: wheat (Triticum aestivum); experiment: Test B pre-/postemergence
Outline: as §1

[16] = test system: wild oat (Avena fatua); experiment: Test B pre-/postemergence
Outline: as §1

[17] = test system: bamyardgrass (Echinochloa crus-galli); experiment: Test B flood test
Outline: (§2)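 Each value is a visual injury score relative to controls, with 10 meaning complete control and 0 no effect. Evaluation took place twelve to sixteen days after the 2-leaf-stage plants were treated and kept in the greenhouse.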

[18] = test system: duck salad (Heteranthera limosa); experiment: Test B flood test
Outline: as §2

[19] = test system: rice (Oryza sativa); experiment: Test B flood test
Outline: as §2

[20] = test system: smallflower flatsedge (Cyperus difformis); experiment: Test B flood test
Outline: as §2

[21] = Rate 250 g/ha, Postemergence (so in the source)
[22] = Rate 62 g/ha, Postemergence (flood test)
[23] = Rate 125 g/ha, Postemergence, flood test
[24] = Rate 250 g/ha, Postemergence (flood test species)
[25] = Rate 125 g/ha, Postemergence section (flood test species)

Compound: Cc1cnc(-c2ccc(C#N)cc2)nc1Cc1cccc(C#N)c1 [Compound 36]
- Plant response rating, Bedstraw ([1]; Rate 62 g/ha, Postemergence): 6
- Bedstraw plant response rating ([1]; Rate 62 g/ha): 0
- Plant response rating, Bedstraw ([1]; Rate 125 g/ha, Postemergence): 7
- Bedstraw plant response rating ([1]; Rate 125 g/ha): 0
- Plant response rating, Bedstraw ([1]; Rate 250 g/ha, Postemergence): 7
- Plant response rating, Bedstraw [1, 21]: 0
- Plant response rating, Blackgrass ([2]; Rate 62 g/ha, Postemergence): 0
- Blackgrass plant response rating ([2]; Rate 62 g/ha): 0
- Plant response rating, Blackgrass ([2]; Rate 125 g/ha, Postemergence): 0
- Blackgrass plant response rating ([2]; Rate 125 g/ha): 0
- Plant response rating, Blackgrass ([2]; Rate 250 g/ha, Postemergence): 2
- Plant response rating, Blackgrass [2, 21]: 1
- Plant response rating, B. signalgrass ([3]; Rate 62 g/ha, Postemergence): 1
- B. signalgrass plant response rating ([3]; Rate 62 g/ha): 0
- Plant response rating, B. signalgrass ([3]; Rate 125 g/ha, Postemergence): 1
- B. signalgrass plant response rating ([3]; Rate 125 g/ha): 0
- Plant response rating, B. signalgrass ([3]; Rate 250 g/ha, Postemergence): 1
- Plant response rating, B. signalgrass ([3]; Rate 250 g/ha, Postemergence as printed in head r139 (second section for compounds 26-50)): 0
- Plant response rating, Cocklebur ([4]; Rate 62 g/ha, Postemergence): 1
- Cocklebur plant response rating ([4]; Rate 62 g/ha): 0
- Plant response rating, Cocklebur ([4]; Rate 125 g/ha, Postemergence): 2
- Cocklebur plant response rating ([4]; Rate 125 g/ha): 0
- Plant response rating, Cocklebur ([4]; Rate 250 g/ha, Postemergence): 3
- Plant response rating, Cocklebur [4, 21]: 0
- Plant response rating, Corn ([5]; Rate 62 g/ha, Postemergence): 1
- Corn plant response rating ([5]; Rate 62 g/ha): 0
- Plant response rating, Corn ([5]; Rate 125 g/ha, Postemergence): 1
- Corn plant response rating ([5]; Rate 125 g/ha): 0
- Plant response rating, Corn ([5]; Rate 250 g/ha, Postemergence): 1
- Plant response rating, Corn [5, 21]: 0
- Plant response rating, Crabgrass ([6]; Rate 62 g/ha, Postemergence): 0
- Crabgrass plant response rating ([6]; Rate 62 g/ha): 0
- Plant response rating, Crabgrass ([6]; Rate 125 g/ha, Postemergence): 1
- Crabgrass plant response rating ([6]; Rate 125 g/ha): 0
- Plant response rating, Crabgrass ([6]; Rate 250 g/ha, Postemergence): 1
- Plant response rating, Crabgrass [6, 21]: 0
- Plant response rating, Giant foxtail ([7]; Rate 62 g/ha, Postemergence): 0
- Giant foxtail plant response rating ([7]; Rate 62 g/ha, Preemergence): 0
- Giant foxtail plant response rating ([7]; Rate 125 g/ha, Postemergence): 1
- Giant foxtail plant response rating ([7]; Rate 125 g/ha, Preemergence): 0
- Plant response rating, Giant foxtail ([7]; Rate 250 g/ha, Postemergence): 1
- Plant response rating, Giant foxtail [7, 21]: 0
- Plant response rating, Morningglory ([8]; Rate 62 g/ha, Postemergence): 1
- Morningglory plant response rating ([8]; Rate 62 g/ha, Preemergence): 0
- Morningglory plant response rating ([8]; Rate 125 g/ha, Postemergence): 2
- Morningglory plant response rating ([8]; Rate 125 g/ha, Preemergence): 0
- Plant response rating, Morningglory ([8]; Rate 250 g/ha, Postemergence): 2
- Plant response rating, Morningglory [8, 21]: 0
- Plant response rating, Redroot pigweed ([9]; Rate 62 g/ha, Postemergence): 0
- Redroot pigweed plant response rating ([9]; Rate 62 g/ha, Preemergence): 0
- Redroot pigweed plant response rating ([9]; Rate 125 g/ha, Postemergence): 4
- Redroot pigweed plant response rating ([9]; Rate 125 g/ha, Preemergence): 0
- Plant response rating, Redroot pigweed ([9]; Rate 250 g/ha, Postemergence): 8
- Plant response rating, Redroot pigweed [9, 21]: 8
- Plant response rating, Nutsedge ([10]; Rate 62 g/ha, Postemergence): 0
- Nutsedge plant response rating ([10]; Rate 62 g/ha, Preemergence): 0
- Nutsedge plant response rating ([10]; Rate 125 g/ha, Postemergence): 0
- Nutsedge plant response rating ([10]; Rate 125 g/ha, Preemergence): 0
- Plant response rating, Nutsedge ([10]; Rate 250 g/ha, Postemergence): 0
- Plant response rating, Nutsedge [10, 21]: 0
- Plant response rating, Rape ([11]; Rate 62 g/ha, Postemergence): 4
- Rape plant response rating ([11]; Rate 62 g/ha, Preemergence): 0
- Rape plant response rating ([11]; Rate 125 g/ha, Postemergence): 5
- Rape plant response rating ([11]; Rate 125 g/ha, Preemergence): 0
- Plant response rating, Rape ([11]; Rate 250 g/ha, Postemergence): 5
- Plant response rating, Rape [11, 21]: 1
- Plant response rating, Soybean ([12]; Rate 62 g/ha, Postemergence): 1
- Soybean plant response rating ([12]; Rate 62 g/ha, Preemergence): 0
- Soybean plant response rating ([12]; Rate 125 g/ha, Postemergence): 1
- Plant response rating, Soybean ([12]; Rate 125 g/ha, Preemergence): 0
- Plant response rating, Soybean ([12]; Rate 250 g/ha, Postemergence): 2
- Plant response rating, Soybean [12, 21]: 1
- Plant response rating, Sugarbeets ([13]; Rate 62 g/ha, Postemergence): 8
- Sugarbeets plant response rating ([13]; Rate 62 g/ha, Preemergence): 0
- Sugarbeets plant response rating ([13]; Rate 125 g/ha, Postemergence): 8
- Plant response rating, Sugarbeets ([13]; Rate 125 g/ha, Preemergence): 0
- Plant response rating, Sugarbeets ([13]; Rate 250 g/ha, Postemergence): 9
- Plant response rating, Sugarbeets [13, 21]: 2
- Plant response rating, Velvetleaf ([14]; Rate 62 g/ha, Postemergence): 1
- Velvetleaf plant response rating ([14]; Rate 62 g/ha, Preemergence): 0
- Velvetleaf plant response rating ([14]; Rate 125 g/ha, Postemergence): 1
- Plant response rating, Velvetleaf ([14]; Rate 125 g/ha, Preemergence): 0
- Plant response rating, Velvetleaf ([14]; Rate 250 g/ha, Postemergence): 1
- Plant response rating, Velvetleaf [14, 21]: 1
- Wheat plant response rating ([15]; Rate 62 g/ha, Postemergence): 0
- Wheat plant response rating ([15]; Rate 62 g/ha, Preemergence): 0
- Wheat plant response rating ([15]; Rate 125 g/ha, Postemergence): 1
- Plant response rating, Wheat ([15]; Rate 125 g/ha, Preemergence): 0
- Plant response rating, Wheat ([15]; Rate 250 g/ha, Postemergence): 2
- Plant response rating, Wheat [15, 21]: 0
- Wild oats plant response rating ([16]; Rate 62 g/ha, Postemergence): 0
- Wild oats plant response rating ([16]; Rate 62 g/ha, Preemergence): 0
- Wild oats plant response rating ([16]; Rate 125 g/ha, Postemergence): 1
- Plant response rating, Wild oats ([16]; Rate 125 g/ha, Preemergence): 0
- Plant response rating, Wild oats ([16]; Rate 250 g/ha, Postemergence): 2
- Plant response rating, Wild oats [16, 21]: 0
- Plant response rating, Barnyardgrass [17, 22]: 0
- Plant response rating, Barnyardgrass [17, 23]: 0
- Plant response rating, Barnyardgrass [17, 24]: 0
- Plant response rating, Ducksalad [18, 22]: 0
- Plant response rating, Ducksalad [18, 23]: 0
- Plant response rating, Ducksalad [18, 24]: 1
- Plant response rating, Rice [19, 22]: 0
- Rice plant response rating [19, 25]: 0
- Plant response rating, Rice [19, 24]: 0
- Plant response rating, S. Flatsedge [20, 22]: 2
- S. Flatsedge plant response rating [20, 25]: 5
- Plant response rating, S. Flatsedge [20, 24]: 6
